From patent US20240270821A1, “GIP/GLP1/GCG TRI-RECEPTOR AGONISTS AND USES THEREOF” (priority 2023, published 2024)
Where two headings read alike, the source gives them in different places.

What was measured:
Format in all cases: cell-based
[1] = target: human GcgR (Homo sapiens, UniProt P47871); test: Functional cAMP activity in the presence of 1% HSA; settings: read-out: cAMP Rel EC50, hGcgR
[2] = target: T1, hGLP-1R (Homo sapiens, UniProt P43220); test: Functional cAMP activation in the presence of 0.1% casein (no HSA); settings: read-out: Relative cAMP EC50, hGLP-1R;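 also: intracellular cAMP rise after 30 min at 37 °C read by HTRF, normalized between buffer only (0%) and maximal control ligand (100%), four-parameter variable-slope fit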
T1 sequence (P43220 24-463): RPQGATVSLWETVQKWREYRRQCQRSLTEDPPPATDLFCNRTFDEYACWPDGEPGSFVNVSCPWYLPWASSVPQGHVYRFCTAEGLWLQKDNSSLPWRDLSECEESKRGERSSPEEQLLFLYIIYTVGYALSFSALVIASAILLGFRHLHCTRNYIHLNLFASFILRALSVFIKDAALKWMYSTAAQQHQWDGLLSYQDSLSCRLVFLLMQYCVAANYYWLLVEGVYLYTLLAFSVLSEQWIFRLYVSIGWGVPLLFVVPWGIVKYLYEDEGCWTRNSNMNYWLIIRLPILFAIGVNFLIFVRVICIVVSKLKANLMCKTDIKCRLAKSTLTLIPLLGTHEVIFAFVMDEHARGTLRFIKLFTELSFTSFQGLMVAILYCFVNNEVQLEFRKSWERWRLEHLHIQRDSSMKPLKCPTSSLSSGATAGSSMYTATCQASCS

[3] = target: hGcgR (Homo sapiens, UniProt P47871); test: as above; settings: read-out: Relative cAMP EC50, hGcgR;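 also: intracellular cAMP rise after 30 min at 37 °C, read by HTRF against a cAMP standard curve, scaled from buffer only (0%) to maximal control ligand response (100%)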
hGcgR, sequence (P47871 26-477): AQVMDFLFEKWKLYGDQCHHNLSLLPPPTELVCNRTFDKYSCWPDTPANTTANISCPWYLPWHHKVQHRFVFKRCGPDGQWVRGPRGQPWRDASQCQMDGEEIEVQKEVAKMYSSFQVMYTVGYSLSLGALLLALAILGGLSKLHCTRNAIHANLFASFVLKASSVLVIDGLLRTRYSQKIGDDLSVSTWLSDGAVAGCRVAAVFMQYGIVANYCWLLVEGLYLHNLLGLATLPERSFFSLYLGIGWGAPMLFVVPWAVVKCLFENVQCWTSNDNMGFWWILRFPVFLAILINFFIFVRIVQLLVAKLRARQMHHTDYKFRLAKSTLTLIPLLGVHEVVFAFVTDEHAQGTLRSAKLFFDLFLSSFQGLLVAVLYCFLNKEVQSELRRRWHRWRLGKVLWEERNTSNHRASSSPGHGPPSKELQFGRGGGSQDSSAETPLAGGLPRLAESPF

[4] = target: T2, hGIPR (Homo sapiens, UniProt P48546); test: Functional cAMP activity in the presence of 1% HSA; settings: read-out: cAMP Rel EC50, hGIPR
T2 sequence (P48546 22-466): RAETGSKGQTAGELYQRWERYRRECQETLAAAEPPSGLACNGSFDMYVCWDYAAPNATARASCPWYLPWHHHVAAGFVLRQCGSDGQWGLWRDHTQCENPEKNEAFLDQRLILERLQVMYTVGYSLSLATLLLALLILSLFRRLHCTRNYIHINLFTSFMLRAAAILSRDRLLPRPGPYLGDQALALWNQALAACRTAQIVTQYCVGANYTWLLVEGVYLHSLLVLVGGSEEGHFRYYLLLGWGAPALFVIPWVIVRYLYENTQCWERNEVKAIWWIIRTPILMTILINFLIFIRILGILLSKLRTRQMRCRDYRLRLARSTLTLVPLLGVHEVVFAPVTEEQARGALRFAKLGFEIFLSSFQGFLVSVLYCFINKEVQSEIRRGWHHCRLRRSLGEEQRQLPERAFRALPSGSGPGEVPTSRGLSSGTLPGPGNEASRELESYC

[5] = target: T1, hGLP-1R; test: Functional cAMP activity in the presence of 1% HSA; settings: read-out: cAMP Rel EC50, hGLP-1R
[6] = target: T2, hGIPR; test: Functional cAMP activation in the presence of 0.1% casein (no HSA); settings: read-out: Relative cAMP EC50, hGIPR;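 as to Relative cAMP EC50, hGIPR: intracellular cAMP rise after 30 min at 37 °C read by HTRF against a standard curve, scaled between buffer alone (0%) and top control ligand concentration (100%), four-parameter fit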;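 as to Relative cAMP EC50, hGcgR: intracellular cAMP rise after 30 min at 37 °C, read by HTRF against a cAMP standard curve, scaled from buffer only (0%) to maximal control ligand response (100%)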
[7] = in the presence of 0.1% casein (no HSA), geometric mean

human GcgR, sequence (P47871 26-477): as the sequence (P47871 26-477) above

EC50 [2]	EC50 [3]	EC50 [6]	SMILES	EC50 [1]	EC50 [2, 7]	EC50 [3, 7]	EC50 [4]	EC50 [5]	EC50 [6, 7]
			CC[C@H](C)[C@H](NC(=O)[C@H](Cc1ccccc1)NC(=O)[C@H](C)NC(=O)C(C)(C)NC(=O)[C@H](CCC(N)=O)NC(=O)[C@H](C)NC(=O)[C@H](CCCCNC(=O)COCCOCCNC(=O)COCCOCCNC(=O)CC[C@H](NC(=O)CCCCCCCCCCCCCCCCC(=O)O)C(=O)O)NC(=O)[C@H](CCCCN)NC(=O)[C@H](CC(=O)O)NC(=O)[C@H](CC(C)C)NC(=O)[C@](C)(CC(C)C)NC(=O)[C@H](CCCCN)NC(=O)[C@H](CO)NC(=O)[C@H](Cc1ccccc1)NC(=O)[C@H](CC(=O)O)NC(=O)[C@H](CO)NC(=O)[C@@H](NC(=O)[C@H](Cc1ccccc1)NC(=O)[C@@H](NC(=O)CNC(=O)[C@H](CCC(N)=O)NC(=O)C(C)(C)NC(=O)[C@@H](N)Cc1ccc(O)cc1)[C@@H](C)O)[C@@H](C)O)C(=O)N[C@@H](CCC(=O)O)C(=O)N[C@@H](Cc1ccc(O)cc1)C(=O)N[C@@H](CC(C)C)C(=O)N[C@@H](CC(C)C)C(=O)N[C@@H](C)C(=O)NCC(=O)NCC(=O)N1CCC[C@H]1C(=O)N[C@@H](CO)C(=O)N[C@@H](CO)C(=O)NCC(=O)N[C@@H](CCC(=O)O)C(=O)N1CCC[C@H]1C(=O)N1CCC[C@H]1C(=O)N1CCC[C@H]1C(=O)N[C@@H](CO)C(=O)N[C@@H](CCC(=O)O)C(=O)NCC(N)=O [Example 25]	939 nM	3.34 nM	6.8 nM	19.8 nM	520 nM	0.128 nM
			CC[C@H](C)[C@H](NC(=O)[C@H](Cc1ccccc1)NC(=O)[C@H](CCC(N)=O)NC(=O)C(C)(C)NC(=O)[C@H](CCC(N)=O)NC(=O)[C@H](C)NC(=O)[C@H](CCCCNC(=O)COCCOCCNC(=O)CC[C@H](NC(=O)CCCCCCCCCCCCCCCCCCC(=O)O)C(=O)O)NC(=O)[C@H](CCCCN)NC(=O)[C@H](CC(=O)O)NC(=O)[C@H](CC(C)C)NC(=O)[C@](C)(CC(C)C)NC(=O)[C@H](CCCCN)NC(=O)[C@H](CO)NC(=O)[C@H](Cc1ccccc1)NC(=O)[C@H](CC(=O)O)NC(=O)[C@H](CO)NC(=O)[C@@H](NC(=O)[C@H](Cc1ccccc1)NC(=O)[C@@H](NC(=O)CNC(=O)[C@H](CCC(N)=O)NC(=O)C(C)(C)NC(=O)[C@@H](N)Cc1ccc(O)cc1)[C@@H](C)O)[C@@H](C)O)C(=O)N[C@@H](CCC(=O)O)C(=O)N[C@@H](Cc1c[nH]c2ccccc12)C(=O)N[C@@H](CC(C)C)C(=O)N[C@@H](CC(C)C)C(=O)N[C@@H](CCC(=O)O)C(=O)NCC(=O)NCC(=O)N1CCC[C@H]1C(=O)N[C@@H](CO)C(=O)N[C@@H](CO)C(=O)NCC(=O)N[C@@H](C)C(=O)N1CCC[C@H]1C(=O)N1CCC[C@H]1C(=O)N1CCC[C@H]1C(=O)N[C@@H](CO)C(=O)N[C@@H](CCC(=O)O)C(=O)NCC(N)=O [Example 38]	2770 nM		9.5 nM	102 nM	884 nM	0.304 nM
0.431 nM	1.6 nM	0.0297 nM	CC[C@H](C)[C@H](NC(=O)[C@H](Cc1ccccc1)NC(=O)[C@H](C)NC(=O)C(C)(C)NC(=O)[C@H](CCC(N)=O)NC(=O)[C@H](C)NC(=O)[C@H](CCCCNC(=O)CC[C@H](NC(=O)CC[C@H](NC(=O)CCCCCCCCCCCCCCCCC(=O)O)C(=O)O)C(=O)O)NC(=O)[C@H](CCCCN)NC(=O)[C@H](CC(=O)O)NC(=O)[C@H](CC(C)C)NC(=O)[C@H](CC(C)C)NC(=O)[C@@H](NC(=O)[C@H](CO)NC(=O)[C@H](Cc1ccc(O)cc1)NC(=O)[C@H](CC(=O)O)NC(=O)[C@H](CO)NC(=O)[C@@H](NC(=O)[C@](C)(Cc1ccccc1F)NC(=O)[C@@H](NC(=O)CNC(=O)[C@H](CCC(N)=O)NC(=O)C(C)(C)NC(=O)[C@@H](N)Cc1ccc(O)cc1)[C@@H](C)O)[C@@H](C)O)[C@@H](C)CC)C(=O)N[C@@H](CCC(=O)O)C(=O)N[C@@H](Cc1ccc(O)cc1)C(=O)N[C@@H](CC(C)C)C(=O)N[C@@H](CCC(=O)O)C(=O)N[C@@H](CCC(=O)O)C(=O)NCC(=O)NCC(=O)N1CCC[C@H]1C(=O)N[C@@H](CO)C(=O)N[C@@H](CO)C(=O)NCC(=O)N[C@@H](CCC(=O)O)C(=O)N1CCC[C@H]1C(=O)N1CCC[C@H]1C(=O)N1CCC[C@H]1C(=O)N[C@@H](CO)C(N)=O [Example 432]	384 nM				41.7 nM	
			CC[C@H](C)[C@H](NC(=O)[C@H](CC(C)C)NC(=O)[C@H](Cc1ccc(O)cc1)NC(=O)[C@H](CCC(=O)O)NC(=O)[C@@H](NC(=O)[C@H](Cc1ccccc1)NC(=O)[C@H](C)NC(=O)[C@](C)(Cc1ccncc1)NC(=O)[C@H](CCC(N)=O)NC(=O)[C@H](C)NC(=O)[C@H](CCCCNC(=O)COCCOCCNC(=O)CC[C@H](NC(=O)CCCCCCCCCCCCCCCCC(=O)O)C(=O)O)NC(=O)[C@H](CCCCN)NC(=O)[C@H](CC(=O)O)NC(=O)[C@H](CC(C)C)NC(=O)[C@](C)(CC(C)C)NC(=O)[C@H](CCCN)NC(=O)[C@H](CO)NC(=O)[C@H](Cc1ccncc1)NC(=O)[C@H](CC(=O)O)NC(=O)[C@H](CO)NC(=O)[C@@H](NC(=O)[C@H](Cc1ccccc1)NC(=O)[C@@H](NC(=O)CNC(=O)[C@H](CCC(N)=O)NC(=O)C(C)(C)NC(=O)[C@@H](N)Cc1ccc(O)cc1)[C@@H](C)O)[C@@H](C)O)[C@@H](C)CC)C(=O)N[C@@H](CCC(=O)O)C(=O)NCC(=O)NCC(=O)N[C@@H](CCC(=O)O)C(=O)N[C@@H](CO)C(=O)N[C@@H](CO)C(=O)NCC(=O)N[C@@H](C)C(=O)N1CCC[C@H]1C(=O)N1CCC[C@H]1C(=O)N1CCC[C@H]1C(=O)N[C@@H](CO)C(=O)NCC(=O)N[C@@H](CO)C(N)=O [Example 791]	456 nM		2.36 nM	143 nM	980 nM	0.979 nM
			CC[C@H](C)[C@H](NC(=O)[C@H](CC(C)C)NC(=O)[C@H](Cc1ccc(O)cc1)NC(=O)[C@H](CCC(=O)O)NC(=O)[C@@H](NC(=O)[C@H](Cc1ccccc1)NC(=O)[C@H](C)NC(=O)[C@](C)(Cc1ccncc1)NC(=O)[C@H](CCC(N)=O)NC(=O)[C@H](C)NC(=O)[C@H](CCCCNC(=O)COCCOCCNC(=O)CC[C@H](NC(=O)CCCCCCCCCCCCCCCCC(=O)O)C(=O)O)NC(=O)[C@H](CCCCN)NC(=O)[C@H](CC(=O)O)NC(=O)[C@H](CC(C)C)NC(=O)[C@](C)(CC(C)C)NC(=O)[C@H](CCC(N)=O)NC(=O)[C@H](CO)NC(=O)[C@H](Cc1ccncc1)NC(=O)[C@H](CC(=O)O)NC(=O)[C@H](CO)NC(=O)[C@@H](NC(=O)[C@H](Cc1ccccc1)NC(=O)[C@@H](NC(=O)CNC(=O)[C@H](CCC(N)=O)NC(=O)C(C)(C)NC(=O)[C@@H](N)Cc1ccc(O)cc1)[C@@H](C)O)[C@@H](C)O)[C@@H](C)CC)C(=O)N[C@@H](CCC(=O)O)C(=O)NCC(=O)NCC(=O)N[C@@H](CCC(=O)O)C(=O)N[C@@H](CO)C(=O)N[C@@H](CO)C(=O)NCC(=O)N[C@@H](C)C(=O)N1CCC[C@H]1C(=O)N1CCC[C@H]1C(=O)N1CCC[C@H]1C(=O)N[C@@H](CO)C(=O)NCC(=O)N[C@@H](CO)C(N)=O [Example 793]	1660 nM	3.19 nM	3.79 nM		559 nM	0.834 nM
			CC[C@H](C)[C@H](NC(=O)[C@H](Cc1ccccc1)NC(=O)[C@H](C)NC(=O)[C@](C)(Cc1ccncc1)NC(=O)[C@H](CCC(N)=O)NC(=O)[C@H](C)NC(=O)[C@H](CCCCNC(=O)CC[C@H](NC(=O)CC[C@H](NC(=O)CCCCCCCCCCCCCCCCC(=O)O)C(=O)O)C(=O)O)NC(=O)[C@H](CCCN)NC(=O)[C@H](CC(=O)O)NC(=O)[C@H](CC(C)C)NC(=O)[C@](C)(CC(C)C)NC(=O)[C@H](CCC(N)=O)NC(=O)[C@H](CO)NC(=O)[C@H](Cc1ccncc1)NC(=O)[C@H](CC(=O)O)NC(=O)[C@H](CO)NC(=O)[C@@H](NC(=O)[C@H](Cc1ccccc1)NC(=O)[C@@H](NC(=O)CNC(=O)[C@H](CCC(N)=O)NC(=O)C(C)(C)NC(=O)[C@@H](N)Cc1ccc(O)cc1)[C@@H](C)O)[C@@H](C)O)C(=O)N[C@@H](CCC(=O)O)C(=O)N[C@@H](Cc1ccc(O)cc1)C(=O)N[C@@H](CC(C)C)C(=O)N[C@H](C(=O)N[C@@H](CCC(=O)O)C(=O)N[C@H](C)C(=O)NCC(=O)N1CCC[C@H]1C(=O)N[C@@H](CO)C(=O)N[C@@H](CO)C(=O)NCC(=O)N[C@@H](C)C(=O)N1CCC[C@H]1C(=O)N1CCC[C@H]1C(=O)N1CCC[C@H]1C(=O)N[C@@H](CCC(=O)O)C(=O)NCC(=O)N[C@@H](CO)C(N)=O)[C@@H](C)CC [Example 1021]	588 nM	1.3 nM	4.39 nM		174 nM	0.22 nM
